From patent US8084621B2, “3-Pyrrolo[b]cyclohexylene-2-dihydroindolinone derivatives and uses thereof” (Jiangsu Simcere Pharmaceutical R&D Co. Ltd., priority 2006, dated 2011)

Tests used:
Format in all cases: cell-based
[1] = system: Human Pancreatic Carcinoma Cells (PANC-1); experiment: Tumor cell proliferation assay (MTT), PANC-1; settings: for inhibition at 10 µM: concentration of 10^−5 mol/L, preliminary screening, 72 hours, read-out: Inhibition rate % PANC-1; for IC50: secondary screening, 48 hours
Text: (§1) The assay used generally is the blue tetrazolium bromide (MTT) method. […] The amount of formazan can be detected by the microplate reader through the absorption value at 570 nm. The amount of formazan product generated is proportional to the number of living cells in the sample, so the OD value may reflect the number of living cells and the ability of a test drug to inhibit or kill cells. The MTT assay may be used in determining the ability of different compounds of the present invention to inhibit one or more cancer cells proliferation. Similar assays can be designed along the same lines for any cancer cell using techniques well known in the art.
(§2) The assay used generally is the blue tetrazolium bromide (MTT) method. […] Intracellular purple formazan salt crystals can be solved in DMSO and the absorption value at 570 nm is detected by the microplate reader, then the number of living cells can be detected indirectly. So MTT assay may be used to determine the ability of a compound of the present invention to inhibit cell proliferation. Similar assays can be designed along the same lines for any cancer cell using techniques well known in the art.
2.2.4 Human Pancreatic Carcinoma Cells (PANC-1)
(§3) The cells of the 2.2.1, 2.2.2, 2.2.3, 2.2.4, 2.2.5 cultured with RPMI 1640 containing 12% calf serum in the condition of 37° C., 5% CO2.
(§4) 2.3.1 Cell seeding: Trypsinize the cell by 0.05% trypsin-EDTA and add RPMI 1640 medium (DMEM or 5A) containing 12% calf serum. Count the number, then dilute to 1.67×10^4/ml. Add 180 ul/well to the 96 well plate (3000 cells/well).
(§5) 2.3.2 Culture: cells are incubated for 24 hours at 37° C. under 5% CO2.
(§6) 2.3.3 Preliminary screening: The compounds are firstly diluted to 0.1 mol/L with DMSO, and then diluted to three concentrations of 10^−5 mol/L, 10^−6 mol/L and 10^−7 mol/L. Add 20 ul test compounds to the 96 well plate and incubate for 72 hours. Each group has three parallel wells and all experiments repeat three times. Each inhibition ratio is calculated, then an average value of three times is taken as the measured value. 2.3.4 Staining 2.3.4.1 Attached cell: add 20 ul/well MTT to the 96-well plates; incubate for 4 hours in the incubator. Pour out the culture medium in the well and add 100 ul/well DMSO. Shake the plate for 5 min. 2.3.4.2 Suspension cell: add 20 ul/well MTT to the 96-well plates; incubate for 4 hours in the incubator. Add 50 ul/well 20% SDS and incubate for overnight in the incubator. 2.3.5 Reading the plates: read the absorbance A570-A630 with the Infinite M200 microtiter plate reader. Calculate the inhibition ratio of the test compounds. 2.3.6 Secondary screening: the compounds whose inhibition ratio is greater than 50% at the concentrations of 10^−5 mol/L in the preliminary screening will be picked out for Secondary screening. Dilute these compounds to ten concentrations: 10^−5 mol/L, 0.5×10^−5 mol/L, 10^−6 mol/L, 0.8×10^−6 mol/L, 0.6×10^−6 mol/L, 0.4×10^−6 mol/L, 0.2×10^−6 mol/L, 10^−7 mol/L, 0.8×10^−7 mol/L and 0.4×10^−7 mol/L. Add 20 ul test compound solution to the 96 well plate and incubate for 48 hours. Each group has three parallel wells and all experiments repeat for three times. Read the plates and calculate the inhibition ratio according to the preliminary screening method. 2.3.7 Calculate the Inhibition Ratio of Cell Proliferation and the IC50
(§7) According to the inhibition ratio of cell proliferation at the different concentrations of the compound, inhibition ratio of 50% of the test compound is calculated through the logarithm of the concentration of the compound with the Logit [I] linear regression, and an average value of three times is taken as the measured value of a sample.

[2] = system: Human Gastric Cancer Cell Line (BGC); experiment: Tumor cell proliferation assay (MTT), BGC; settings: for inhibition at 10 µM: concentration of 10^−5 mol/L, preliminary screening, 72 hours, read-out: Inhibition rate % BGC; for IC50: secondary screening, 48 hours
[3] = system: Human Pancreatic Carcinoma Cell Line (BXPC-3); experiment: Tumor cell proliferation assay (MTT), BXPC-3; settings: for inhibition at 10 µM: concentration of 10^−5 mol/L, preliminary screening, 72 hours, read-out: Inhibition rate % BXPC-3; for IC50: secondary screening, 48 hours
[4] = system: Human Colon Cancer Cell Line (HT-29); experiment: Tumor cell proliferation assay (MTT), HT29; settings: for inhibition at 10 µM: concentration of 10^−5 mol/L, preliminary screening, 72 hours, read-out: Inhibition rate % HT29; for IC50: secondary screening, 48 hours
[5] = system: Human Non-Small Cell Lung Cancer Cell Line (A549); experiment: Tumor cell proliferation assay (MTT), A549; settings: for inhibition at 10 µM: concentration of 10^−5 mol/L, preliminary screening, 72 hours, read-out: Inhibition rate % A549; for IC50: secondary screening, 48 hours
Text: as §1, §2
2.2.2 Human Non-Small Cell Lung Cancer Cell Line (A549)
as §3, §4, §5, §6, §7

CCN(CC)CCNC(=O)c1c(C)[nH]c2c1CCC/C2=C1/C(=O)Nc2ccc(F)cc21 [I-2, N-(2-(diethylamino)ethyl)-2-methyl-7-[1,2-dihydro-5-fluoro-2-oxo-3H-indol-(Z)-3-ylidene]-4,5,6,7-tetrahydro-1H-indole-3-carboxamide]
inhibition at 10 µM [1]: 70.6%
inhibition at 10 µM [2]: 71%
IC50 [2]: 6110 nM
inhibition at 10 µM [3]: 79.4%
IC50 [3]: 520 nM
inhibition at 10 µM [4]: 97.4%
IC50 [4]: 1200 nM
inhibition at 10 µM [5]: 10.2%

Cc1[nH]c2c(c1C(=O)NCC(O)CN1CCOCC1)CCC/C2=C1/C(=O)Nc2ccc(F)cc21 (stereo not drawn) [I-68, N-(2-hydroxy-3-morpholinopropyl)-2-methyl-7-[1,2-dihydro-5-fluoro-2-oxo-3H-indol-(Z)-3-ylidene]-4,5,6,7-tetrahydro-1H-indole-3-carboxamide]
inhibition at 10 µM [1]: 34.3%
inhibition at 10 µM [2]: 55.4%
IC50 [2]: 7590 nM
inhibition at 10 µM [3]: 60.7%
IC50 [3]: 6490 nM
inhibition at 10 µM [4]: 31.3%
inhibition at 10 µM [5]: 61.1%
IC50 [5]: 5490 nM

Cc1[nH]c2c(c1C(=O)NCC(O)CN1CCCCC1)CCC/C2=C1/C(=O)Nc2ccc(F)cc21 (stereo not drawn) [I-74, N-(2-hydroxy-3-(piperidin-1-yl)propyl)-2-methyl-7-[1,2-dihydro-5-fluoro-2-oxo-3H-indol-(Z)-3-ylidene]-4,5,6,7-tetrahydro-1H-indole-3-carboxamide]
inhibition at 10 µM [1]: 93.6%
inhibition at 10 µM [2]: 60.2%
IC50 [2]: 7950 nM
inhibition at 10 µM [3]: 32.1%
IC50 [3]: 240 nM
inhibition at 10 µM [4]: 92.2%
IC50 [4]: 420 nM
inhibition at 10 µM [5]: 1.27%

Cc1[nH]c2c(c1C(=O)NCCN(C)C)CCC/C2=C1/C(=O)Nc2ccc(F)cc21 [I-6, N-(2-(dimethylamino)ethyl)-2-methyl-7-[1,2-dihydro-5-fluoro-2-oxo-3H-indol-(Z)-3-ylidene]-4,5,6,7-tetrahydro-1H-indole-3-carboxamide]
inhibition at 10 µM [1]: 19.8%
inhibition at 10 µM [2]: 32.3%
inhibition at 10 µM [3]: 64.9%
IC50 [3]: 5990 nM
inhibition at 10 µM [4]: 61.9%
IC50 [4]: 4380 nM

CCN(CC)CCNC(=O)c1c(C)[nH]c2c1CCC/C2=C1/C(=O)Nc2ccc(C)cc21 [I-4, N-(2-(diethylamino)ethyl)-2-methyl-7-[1,2-dihydro-5-methyl-2-oxo-3H-indol-(Z)-3-ylidene]-4,5,6,7-tetrahydro-1H-indole-3-carboxamide]
inhibition at 10 µM [3]: 78.4%
inhibition at 10 µM [4]: 89.9%
inhibition at 10 µM [5]: 67.5%
IC50 [5]: 1010 nM

Cc1[nH]c2c(c1C(=O)NCC(O)CN1CCCCC1)CCC/C2=C1/C(=O)Nc2ccccc21 (stereo not drawn) [I-73, N-(2-hydroxy-3-(piperidin-1-yl)propyl)-2-methyl-7-[1,2-dihydro-2-oxo-3H-indol-(Z)-3-ylidene]-4,5,6,7-tetrahydro-1H-indole-3-carboxamide]
inhibition at 10 µM [1]: 48%
inhibition at 10 µM [2]: 48.8%
IC50 [2]: 10200 nM
inhibition at 10 µM [3]: 90.2%
IC50 [3]: 1240 nM
inhibition at 10 µM [4]: 95.6%
IC50 [4]: 640 nM
inhibition at 10 µM [5]: 2.54%

Cc1[nH]c2c(c1C(=O)N1CCN(C)CC1)CCC/C2=C1/C(=O)Nc2ccc(F)cc21 [I-14, 2-methyl-3-(4-methylpiperazine-1-carbonyl)-7-[1,2-dihydro-5-fluoro-2-oxo-3H-indol-(Z)-3-ylidene]-4,5,6,7-tetrahydro-1H-indole]
inhibition at 10 µM [1]: 14%
inhibition at 10 µM [2]: 39.4%
inhibition at 10 µM [3]: 68.3%
inhibition at 10 µM [4]: 43.3%
inhibition at 10 µM [5]: 4.43%

CCN(CC)CC(O)CNC(=O)c1c(C)[nH]c2c1CCC/C2=C1/C(=O)Nc2ccccc21 (stereo not drawn) [I-63, N-(3-(diethylamino)-2-hydroxypropyl)-2-methyl-7-[1,2-dihydro-2-oxo-3H-indol-(Z)-3-ylidene]-4,5,6,7-tetrahydro-1H-indole-3-carboxamide]
inhibition at 10 µM [1]: 92.1%
IC50 [1]: 660 nM
inhibition at 10 µM [2]: 80.8%
IC50 [2]: 1850 nM
inhibition at 10 µM [3]: 97.3%
IC50 [3]: 1160 nM
inhibition at 10 µM [4]: 92.7%
IC50 [4]: 1020 nM
inhibition at 10 µM [5]: 61.8%
IC50 [5]: 2010 nM

Cc1[nH]c2c(c1C(=O)NCC(O)CN1CCCC1)CCC/C2=C1/C(=O)Nc2ccc(F)cc21 (stereo not drawn) [I-71, N-(2-hydroxy-3-(pyrrolidin-1-yl)propyl)-2-methyl-7-[1,2-dihydro-5-fluoro-2-oxo-3H-indol-(Z)-3-ylidene]-4,5,6,7-tetrahydro-1H-indole-3-carboxamide]
inhibition at 10 µM [1]: 97.4%
IC50 [1]: 1480 nM
inhibition at 10 µM [2]: 82.3%
IC50 [2]: 1420 nM
inhibition at 10 µM [3]: 98.9%
IC50 [3]: 2730 nM
inhibition at 10 µM [4]: 95%
IC50 [4]: 790 nM
inhibition at 10 µM [5]: 71.7%
IC50 [5]: 2350 nM

Cc1[nH]c2c(c1C(=O)NCC(O)CN1CCN(C)CC1)CCC/C2=C1/C(=O)Nc2ccc(F)cc21 (stereo not drawn) [I-77, N-[2-hydroxy-3-(4-methylpiperazin-1-yl)propyl]-2-methyl-7-[1,2-dihydro-5-fluoro-2-oxo-3H-indol-(Z)-3-ylidene]-4,5,6,7-tetrahydro-1H-indole-3-carboxamide]
inhibition at 10 µM [1]: 61.9%
IC50 [1]: 5530 nM
inhibition at 10 µM [2]: 84.2%
IC50 [2]: 3450 nM
inhibition at 10 µM [3]: 45.9%
IC50 [3]: 8700 nM
inhibition at 10 µM [4]: 74.4%
IC50 [4]: 8380 nM
inhibition at 10 µM [5]: 50.8%
IC50 [5]: 7120 nM

Cc1[nH]c2c(c1C(=O)NCCO)CCC/C2=C1/C(=O)Nc2ccccc21 [I-8, N-(2-hydroxyethyl)-2-methyl-7-[1,2-dihydro-2-oxo-3H-indol-(Z)-3-ylidene]-4,5,6,7-tetrahydro-1H-indole-3-carboxamide]
inhibition at 10 µM [1]: 5.66%
inhibition at 10 µM [2]: 47%
inhibition at 10 µM [3]: 74.9%
IC50 [3]: 1170 nM
inhibition at 10 µM [4]: 84.8%
inhibition at 10 µM [5]: 0.24%

CCN(CC)CCNC(=O)c1c(C)[nH]c2c1CCC/C2=C1/C(=O)Nc2ccccc21 [I-5, N-(2-(diethylamino)ethyl)-2-methyl-7-[1,2-dihydro-2-oxo-3H-indol-(Z)-3-ylidene]-4,5,6,7-tetrahydro-1H-indole-3-carboxamide]
inhibition at 10 µM [1]: 47.8%
inhibition at 10 µM [2]: 64%
IC50 [2]: 6730 nM
inhibition at 10 µM [3]: 89.4%
IC50 [3]: 520 nM
inhibition at 10 µM [4]: 91.5%
IC50 [4]: 540 nM
inhibition at 10 µM [5]: 6.71%

Cc1[nH]c2c(c1C(=O)NCCCN(C)C)CCC/C2=C1/C(=O)Nc2ccc(Cl)cc21 [I-7, N-(3-(dimethylamino)propyl)-2-methyl-7-[1,2-dihydro-5-chloro-2-oxo-3H-indol-(Z)-3-ylidene]-4,5,6,7-tetrahydro-1H-indole-3-carboxamide]
inhibition at 10 µM [1]: 51.8%
IC50 [1]: 6630 nM
inhibition at 10 µM [2]: 75.9%
IC50 [2]: 2760 nM
inhibition at 10 µM [3]: 69.5%
IC50 [3]: 3430 nM
inhibition at 10 µM [4]: 78.4%
IC50 [4]: 3060 nM
